Assay [1] concerns the target T1, isolated recombinant JAK1 kinase domain (Homo sapiens, UniProt P23458).
T1 construct: The activity of the isolated recombinant JAK1 and JAK2 kinase domain was measured
The experiment in a line: JAK1 enzyme assay (Caliper LabChip, Ki). Type of assay: biochemical. The settings on record: 25 μM ATP. Put shortly:
(§1)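 Ki values fitted with Morrison tight-binding equation adjusted for ATP-competitive inhibition, using product-to-total peptide ratio read by Caliper LabChip. Reactions: isolated JAK1 or JAK2 kinase domain with N-terminal 5-carboxyfluorescein JAK3-derived peptide, 22° C for 30 min, quenched by EDTA.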

For another assay, the target named is LRRK2 (Homo sapiens, UniProt Q5S007). The experiment in a line: LRRK2 assay (Life Technologies Adapta, SelectScreen Profiling, IC50). It is filed as biochemical. Particulars: for IC50: 75 μM ATP, 10-point curves, read-out: LRRK 2 IC50; for Ratio (LRRK 2 IC50: JAK1 Ki): selectivity ratio LRRK2 IC50 over JAK1 Ki; for selectivity for JAK1 over LRRK2 (in words): 5-sulfanylphenyl compound compared with 5-chlorophenyl matched pair.

The target of assay [2] is T2, isolated recombinant JAK2 kinase domain (Homo sapiens, UniProt O60674).
T2 construct: The activity of the isolated recombinant JAK1 and JAK2 kinase domain was measured
The experiment in a line: JAK2 enzyme assay (Caliper LabChip, Ki). Type of assay: biochemical. The settings on record: 25 μM ATP. Put shortly:
as §1

Assay [3] concerns JAK1-dependent STAT6 phosphorylation downstream of IL-13 stimulation in BEAS-2B human bronchial epithelial cells. The experiment in a line: JAK1 pathway assay in BEAS-2B cells (IL-13 stimulated STAT6 phosphorylation, MSD). Particulars: read-out: P-STAT6 BEAS2B + IL13 IC50. It is filed as cell-based. Put shortly: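 BEAS-2B human bronchial epithelial cells, plated the day before in complete growth medium, were preincubated with compound for 1 hr at 37° C (0.2% DMSO final), then stimulated with IL-13 at its EC90 for 15 min. STAT6 phosphorylation in lysates was read by MSD; EC50 was taken as 50% inhibition versus DMSO control.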

SMILES strings stand for the structures.

Chain of LRRK2 (Q5S007 970-2527 limits assumed): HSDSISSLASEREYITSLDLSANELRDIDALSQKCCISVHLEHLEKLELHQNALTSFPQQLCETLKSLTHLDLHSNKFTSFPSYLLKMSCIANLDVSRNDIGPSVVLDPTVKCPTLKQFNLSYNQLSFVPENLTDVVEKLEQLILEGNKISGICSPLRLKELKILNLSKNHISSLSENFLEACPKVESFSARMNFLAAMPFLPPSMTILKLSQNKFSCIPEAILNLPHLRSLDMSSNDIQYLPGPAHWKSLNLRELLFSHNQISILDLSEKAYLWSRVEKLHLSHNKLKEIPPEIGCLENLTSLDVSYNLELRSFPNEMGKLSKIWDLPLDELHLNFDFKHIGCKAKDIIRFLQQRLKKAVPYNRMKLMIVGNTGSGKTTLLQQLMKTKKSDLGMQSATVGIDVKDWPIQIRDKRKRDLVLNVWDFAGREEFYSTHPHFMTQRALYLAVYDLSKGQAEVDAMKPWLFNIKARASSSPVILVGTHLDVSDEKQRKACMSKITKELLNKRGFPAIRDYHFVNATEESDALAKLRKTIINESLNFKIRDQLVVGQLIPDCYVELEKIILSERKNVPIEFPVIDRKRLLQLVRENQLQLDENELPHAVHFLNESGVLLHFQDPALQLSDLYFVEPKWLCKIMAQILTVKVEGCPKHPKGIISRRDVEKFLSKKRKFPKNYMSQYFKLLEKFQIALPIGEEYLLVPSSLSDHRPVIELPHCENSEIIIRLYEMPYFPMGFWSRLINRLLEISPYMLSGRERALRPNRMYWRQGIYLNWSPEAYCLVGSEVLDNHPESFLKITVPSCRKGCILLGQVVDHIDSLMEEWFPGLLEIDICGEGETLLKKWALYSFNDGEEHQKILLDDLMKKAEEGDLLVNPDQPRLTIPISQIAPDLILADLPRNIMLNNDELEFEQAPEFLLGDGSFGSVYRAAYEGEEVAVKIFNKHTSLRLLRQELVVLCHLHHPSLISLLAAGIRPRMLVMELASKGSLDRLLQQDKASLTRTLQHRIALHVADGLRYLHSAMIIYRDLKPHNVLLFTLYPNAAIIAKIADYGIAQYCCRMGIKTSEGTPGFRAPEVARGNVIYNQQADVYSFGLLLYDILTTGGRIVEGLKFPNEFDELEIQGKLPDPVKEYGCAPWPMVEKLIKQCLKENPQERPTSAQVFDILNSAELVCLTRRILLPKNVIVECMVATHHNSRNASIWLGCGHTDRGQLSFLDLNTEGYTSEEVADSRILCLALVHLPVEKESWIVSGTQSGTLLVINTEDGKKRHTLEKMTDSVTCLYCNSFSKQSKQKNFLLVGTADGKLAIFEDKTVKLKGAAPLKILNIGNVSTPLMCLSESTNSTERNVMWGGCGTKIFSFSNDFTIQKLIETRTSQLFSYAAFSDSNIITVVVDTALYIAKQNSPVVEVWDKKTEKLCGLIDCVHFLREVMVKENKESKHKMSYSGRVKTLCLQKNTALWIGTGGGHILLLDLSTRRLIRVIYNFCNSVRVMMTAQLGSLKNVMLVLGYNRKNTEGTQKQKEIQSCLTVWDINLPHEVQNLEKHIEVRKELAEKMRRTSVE
T1 sequence (P23458 875-1153 limits assumed): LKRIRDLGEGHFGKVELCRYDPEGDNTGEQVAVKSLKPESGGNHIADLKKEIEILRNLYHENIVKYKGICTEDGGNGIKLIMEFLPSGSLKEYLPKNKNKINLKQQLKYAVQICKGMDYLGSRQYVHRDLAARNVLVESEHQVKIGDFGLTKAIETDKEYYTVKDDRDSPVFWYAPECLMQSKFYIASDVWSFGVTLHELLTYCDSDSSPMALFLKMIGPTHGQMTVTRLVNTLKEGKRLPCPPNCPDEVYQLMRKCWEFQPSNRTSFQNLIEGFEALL
T2 sequence (O60674 849-1124 limits assumed): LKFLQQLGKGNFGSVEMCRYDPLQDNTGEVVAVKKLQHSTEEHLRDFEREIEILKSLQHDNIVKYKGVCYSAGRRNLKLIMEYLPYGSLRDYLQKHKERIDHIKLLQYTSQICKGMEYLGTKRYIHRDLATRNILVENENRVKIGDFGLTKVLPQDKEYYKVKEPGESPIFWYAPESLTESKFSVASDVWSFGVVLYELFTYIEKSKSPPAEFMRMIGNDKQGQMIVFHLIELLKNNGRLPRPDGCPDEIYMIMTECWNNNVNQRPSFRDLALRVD

Take `Cn1cc(NC(=O)c2cnn3cccnc23)c(-c2cc(Cl)ccc2OC(F)F)n1` [A, reference compound]: the inhibitory constant (Ki) in assay [1] (Morrison tight binding model) was 0.18 nM. Besides, on LRRK2, the IC50 was 80.9 nM and the “Ratio (LRRK 2 IC50: JAK1 Ki)” value came to 449.

Turning to `CC(C)(O)Cn1cc(NC(=O)c2cnn3cccnc23)c(-c2cc(Cl)ccc2OC(F)F)n1` [B, reference compound], the Ki in assay [1] (Morrison tight binding model) came to 0.4 nM. In addition, at LRRK2, the IC50 came to 431 nM and the “Ratio (LRRK 2 IC50: JAK1 Ki)” value turned out to be 1078.

Regarding `O=C(Nc1cn(C2CCOCC2)nc1-c1cc(Cl)ccc1OC(F)F)c1cnn2cccnc12` [C, reference compound], the Ki in assay [1] (Morrison tight binding model) stood at 0.69 nM. In addition, on LRRK2, the half-inhibitory concentration (IC50) amounted to 1030 nM and the “Ratio (LRRK 2 IC50: JAK1 Ki)” value came out at 1493.

Regarding `CSc1ccc(OC(F)F)c(-c2nn(C)cc2NC(=O)c2cnn3cccnc23)c1` [D], the Ki in assay [1] (Morrison tight binding model) amounted to 0.13 nM. Further, at LRRK2, the half-maximal inhibitory concentration (IC50) was determined as 193 nM, the “selectivity for JAK1 over LRRK2 (in words)” value (from here on “selectivity for JAK1”) was “greater selectivity for JAK1 over LRRK2 than their 5-chlorophenyl matched pair A” and the “Ratio (LRRK 2 IC50: JAK1 Ki)” value turned out to be 1485.

Consider `CC(C)Sc1ccc(OC(F)F)c(-c2nn(C)cc2NC(=O)c2cnn3cccnc23)c1` [E], for which the Ki in assay [1] (Morrison tight binding model) was 0.25 nM. In addition, on LRRK2, the half-inhibitory concentration (IC50) was 2220 nM, the “selectivity for JAK1” value was “greater selectivity for JAK1 over LRRK2 than their 5-chlorophenyl matched pair A” and the “Ratio (LRRK 2 IC50: JAK1 Ki)” value stood at 8880.

For `CCSc1ccc(OC(F)F)c(-c2nn(CC(=O)N3CCC(N(C)CCC#N)CC3)cc2NC(=O)c2cnn3cccnc23)c1` [Example 194, N-[1-[2-[4-[2-cyanoethyl(methyl)amino]-1-piperidyl]-2-oxo-ethyl]-3-[2-(difluoromethoxy)-5-ethylsulfanyl-phenyl]pyrazol-4-yl]pyrazolo[1,5-a]pyrimidine-3-carboxamide], the inhibition constant Ki in assay [2] was determined as 0.63 nM; in assay [1] (recombinant JAK1 kinase domain) it was 0.31 nM. Further, in assay [3], the IC50 stood at 25 nM.

As for `Cn1cc(NC(=O)c2cnn3cccnc23)c(-c2cc(SC3COC3)ccc2OC(F)F)n1` [F], in assay [1] (Morrison tight binding model), the inhibition constant (Ki) stood at 0.29 nM. Further, the “selectivity for JAK1” value at LRRK2 is listed as “greater selectivity for JAK1 over LRRK2 than their 5-chlorophenyl matched pair A”.

`Cn1cc(NC(=O)c2cnn3cccnc23)c(-c2cc(SC(CF)CF)ccc2OC(F)F)n1` [G]: the Ki in assay [1] (Morrison tight binding model) was 0.16 nM. The “selectivity for JAK1” value at LRRK2 is reported as “greater selectivity for JAK1 over LRRK2 than their 5-chlorophenyl matched pair A”.

With `CSc1ccc(OC(F)F)c(-c2nn(CC(C)(C)O)cc2NC(=O)c2cnn3cccnc23)c1` [H], on LRRK2, the “selectivity for JAK1” value is “greater selectivity for JAK1 over LRRK2 than its 5-chlorophenyl matched pair B”.

`CSc1ccc(OC(F)F)c(-c2nn(C3CCOCC3)cc2NC(=O)c2cnn3cccnc23)c1` [I]: the inhibition constant Ki in assay [1] (Morrison tight binding model) was 0.67 nM. The “selectivity for JAK1” value on LRRK2 was “greater selectivity for JAK1 over LRRK2 than its 5-chlorophenyl matched pair C”.

Regarding `COC(=O)N1CCN(CC2CCN(C(=O)Cn3cc(NC(=O)c4cnn5cccnc45)c(-c4cc(SC)ccc4OC(F)F)n3)CC2)CC1` [J], in assay [1] (Morrison tight binding model), the inhibition constant Ki stood at 0.3 nM. Further, on LRRK2, the half-inhibitory concentration (IC50) came out at 2450 nM, the “selectivity for JAK1” value is given as “high degree of JAK1 over LRRK2 selectivity” and the “Ratio (LRRK 2 IC50: JAK1 Ki)” value is listed as 8167.

As to `CSc1ccc(OC(F)F)c(-c2nn(CC(=O)N3CCC(N4CCC[C@@H](C#N)C4)CC3)cc2NC(=O)c2cnn3cccnc23)c1` [K], in assay [1] (Morrison tight binding model), the Ki was 0.2 nM. Besides, at LRRK2, the half-maximal inhibitory concentration (IC50) came out at 1700 nM, the “selectivity for JAK1” value is “high degree of JAK1 over LRRK2 selectivity” and the “Ratio (LRRK 2 IC50: JAK1 Ki)” value amounted to 8500.

For the compound `CSc1ccc(OC(F)F)c(-c2nn(CC(=O)N3CCC(CN4CCN(CC(=O)N(C)C)CC4)CC3)cc2NC(=O)c2cnn3cccnc23)c1` [L], the inhibition constant (Ki) in assay [1] (Morrison tight binding model) amounted to 0.31 nM. For the same compound, at LRRK2, the IC50 was found to be 2000 nM, the “selectivity for JAK1” value is reported as “high degree of JAK1 over LRRK2 selectivity” and the “Ratio (LRRK 2 IC50: JAK1 Ki)” value stood at 6453.

`CSc1ccc(OC(F)F)c(-c2nn(CC(=O)N3CCC(NCC(C)(C)C#N)CC3)cc2NC(=O)c2cnn3cccnc23)c1` [M]: the inhibition constant (Ki) in assay [1] (Morrison tight binding model) is 0.2 nM. Moreover, on LRRK2, the IC50 was determined as 3350 nM, the “selectivity for JAK1” value is recorded as “high degree of JAK1 over LRRK2 selectivity” and the “Ratio (LRRK 2 IC50: JAK1 Ki)” value turned out to be 16750.

`CSc1ccc(OC(F)F)c(-c2nn(CC(=O)N3CCC(N4CCOCC4)CC3)cc2NC(=O)c2cnn3cccnc23)c1` [N]: the Ki in assay [1] (Morrison tight binding model) was 0.29 nM. Further, on LRRK2, the IC50 came to 1850 nM, the “selectivity for JAK1” value is “high degree of JAK1 over LRRK2 selectivity” and the “Ratio (LRRK 2 IC50: JAK1 Ki)” value came to 6379.
